The source of these data is patent US6756374B2, “Diaminothiazoles having antiproliferative activity” (Hoffmann-La Roche Inc., priority 2001, dated 2004).

For experiment [1], the target named is human cyclin B-CDK1 (Homo sapiens, UniProt P06493). Put plainly: FlashPlate kinase assay, cyclin B-CDK1. In kind it is biochemical. The following applies: Rb protein substrate, 1 μM ATP. As for the experimental part:
(§1) To determine inhibition of Cdk4, Cdk2 and Cdk1 activity, kinase assays were conducted using FlashPlate™ assays (NEN™-Life Science Products). FlashPlate assays were performed using recombinant human cyclin B-CDK1, human cyclin E-CDK2 or human cyclin D1-CDK4 complexes. GST-cyclinE (GST-cycE), CDK2, GST-cyclinB (GST-cycB), CDK1, GST-CDK4 and cyclin D1 (cycD1) cDNA clones in baculovirus vectors were provided by Dr. W. Harper at the Baylor College of Medicine, Houston, Tex.
(§2) The expression of the 62Kd protein was under the control of an IPTG inducible promoter in an M15 E. coli strain. Cells were lysed by sonication and purification was carried out by binding lysates at pH 8.0 to a Ni-chelated agarose column pretreated with 1 mM imidazole. The resin was then washed several times with incrementally decreasing pH buffers to pH 6.0, and eluted with 500 mM imidazole. Eluted protein was dialysed against 20 mM HEPES pH 7.5, 30% glycerol, 200 mM NaCl, and 1 mM DTT. Purified Rb fusion protein stocks were quantitated for protein concentration, aliquoted, and stored at −70° C.
(§3) For all three kinase assays reported herein, 96-well FlashPlates were coated with Rb protein at 10 μg/ml, using 100 μl per well. Plates were incubated at 4° C. overnight or at room temperature for 3 hours on a shaker. To control for nonspecific phosphorylation, one row of wells was coated with 100 μl/well coating buffer (20 mM HEPES, 0.2 M NaCl). Plates were then washed twice with wash buffer (0.01% Tween 20 in phosphate-buffered saline). Compounds to be tested (“test compounds”) were added to the wells at 5×final concentration. Reactions were initiated by immediate addition of 40 μl reaction mix (25 mM HEPES, 20 mM MgCl2, 0.002% Tween 20, 2 mM DTT, 1 μM ATP, 4 nM ^33P-ATP) and a sufficient amount of enzyme to give counts that were at least 10-fold above background. Plates were incubated at room temperature on a shaker for 30 minutes. Plates were washed four times with the wash buffer, sealed, and counted on the TopCount scintillation counter (Packard Instrument Co., Downers Grove, Ill.]. The percent inhibition of Rb phosphorylation, which is a measure of the inhibition of CDK activity, was determined according to the following formula: [formula]
(§4) where “test compound” refers to the average counts per minute of the test duplicates, “nonspecific” refers to the average counts per minute when no CyclinD/Cdk4, etc., was added, and “total” refers to the average counts per minute when no compound was added.

In experiment [2] the target is human cyclin D1-CDK4 (Homo sapiens, UniProt P11802). Put plainly: FlashPlate kinase assay, cyclin D1-CDK4. The class given is biochemical. The settings on record: Rb protein substrate, 1 μM ATP. Here is the method: as §1, §2, §3, §4
Experiment [3] deals with HCT116. Briefly: Tetrazolium dye (MTT) proliferation assay. The class given is cell-based. The following applies: Homo sapiens, HCT-116; HCT116 colorectal carcinoma cell line. As for the experimental part: The cell line used was HCT116, a colorectal carcinoma cell line obtained from the American Type Cell Culture Collection (ATCC;
Rockville, Md.). The cells were grown in McCoy's 5A medium supplemented with 10% FCS and L-glutamine.
Cells were plated at the appropriate seeding density to give logarithmic growth over the course of the assay in a 96-well tissue culture plate. Plates were incubated overnight at 37° C. in a humidified incubator with 5% CO2. The next day, test compounds were serially diluted to four times the final concentration in the appropriate medium containing 1.2% DMSO. One-fourth final volume of each dilution was added in duplicate to the plates containing cells. The same volume of 1.2% DMSO in medium was added to a row of “control wells” such that the final concentration of DMSO in each well was 0.3%. Wells to which no cells were added served as the “blank.” Wells to which no inhibitor was added served as “no inhibitor control.” The plates were) returned to the incubator, and at set time points (determined by their growth curves) plates were analyzed as described below.
3-(4,5-dimethylthiazole-2-yl)-2,5-diphenyl-2H-tetrazolium bromide (thiazolyl blue; MTT; Sigma) was added to each well to yield a final concentration of 1 mg/ml. Plates were returned to the incubator for 2.5-3 hours at 37° C. The MTT-containing medium was removed and the resulting formazan metabolite was solubilized in 100% ethanol with shaking for 15 minutes at room temperature. Absorbance readings were taken in a microtiter plate reader (Dynatech and Molecular Devices plate readers were used interchangeably) at a wavelength of 570 nm with a 650 nm reference. Percent inhibition (% INH) is calculated by subtracting the absorbance of the blank well from all wells, then subtracting the ratio of the average absorbance of each test duplicate (SAVE) by the average of the controls (CAVE) from 1.00. The final number is then multiplied by 100 (% INH=(1.00−SAVE/CAVE)×100).

Experiment [4] addresses human cyclin E-CDK2 (Homo sapiens, UniProt P24941). Briefly: FlashPlate kinase assay, cyclin E-CDK2. The following applies: Rb protein substrate, 1 μM ATP. The class given is biochemical. As for the experimental part:
as §1, §2, §3, §4

human cyclin B-CDK1, sequence (P06493 whole entry): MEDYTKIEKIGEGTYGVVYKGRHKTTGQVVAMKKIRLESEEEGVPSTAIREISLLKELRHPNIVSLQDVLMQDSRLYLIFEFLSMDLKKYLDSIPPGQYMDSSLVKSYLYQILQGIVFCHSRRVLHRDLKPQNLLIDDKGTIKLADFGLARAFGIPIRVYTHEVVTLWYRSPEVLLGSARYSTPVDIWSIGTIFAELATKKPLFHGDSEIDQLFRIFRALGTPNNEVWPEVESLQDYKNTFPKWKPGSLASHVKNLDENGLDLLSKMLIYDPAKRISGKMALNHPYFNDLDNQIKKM
human cyclin B-CDK1, sequence (P14635 whole entry partner): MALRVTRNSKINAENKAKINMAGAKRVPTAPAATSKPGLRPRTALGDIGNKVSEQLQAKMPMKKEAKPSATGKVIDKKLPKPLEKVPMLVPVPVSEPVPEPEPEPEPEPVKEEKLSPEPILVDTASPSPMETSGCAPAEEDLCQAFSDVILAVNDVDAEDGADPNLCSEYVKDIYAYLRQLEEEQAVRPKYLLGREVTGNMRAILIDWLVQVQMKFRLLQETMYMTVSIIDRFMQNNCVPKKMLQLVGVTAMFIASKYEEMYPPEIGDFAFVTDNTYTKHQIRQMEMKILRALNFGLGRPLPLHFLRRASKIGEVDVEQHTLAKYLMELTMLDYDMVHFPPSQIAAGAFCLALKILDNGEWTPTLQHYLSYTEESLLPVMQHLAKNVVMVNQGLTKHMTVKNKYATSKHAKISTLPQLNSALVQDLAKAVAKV
human cyclin D1-CDK4, sequence (P11802 whole entry): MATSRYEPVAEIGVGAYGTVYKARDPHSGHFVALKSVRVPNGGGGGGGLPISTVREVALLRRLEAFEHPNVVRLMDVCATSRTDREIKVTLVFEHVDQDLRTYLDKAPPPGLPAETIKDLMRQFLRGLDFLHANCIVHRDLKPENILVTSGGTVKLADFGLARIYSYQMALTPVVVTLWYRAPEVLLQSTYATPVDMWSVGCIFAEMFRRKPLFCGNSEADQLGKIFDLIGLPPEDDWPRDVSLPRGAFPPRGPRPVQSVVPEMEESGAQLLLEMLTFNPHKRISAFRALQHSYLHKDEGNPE
human cyclin D1-CDK4, sequence (P24385 whole entry partner): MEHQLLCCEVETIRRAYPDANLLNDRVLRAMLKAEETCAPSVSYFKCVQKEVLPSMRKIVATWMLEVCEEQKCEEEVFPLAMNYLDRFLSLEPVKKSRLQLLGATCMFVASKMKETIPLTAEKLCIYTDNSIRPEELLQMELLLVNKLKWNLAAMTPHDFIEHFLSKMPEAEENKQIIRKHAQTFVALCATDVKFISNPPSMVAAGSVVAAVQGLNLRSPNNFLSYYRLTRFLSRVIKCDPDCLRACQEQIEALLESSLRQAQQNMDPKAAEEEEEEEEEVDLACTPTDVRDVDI

Take `CN1CCN(c2ccc(Nc3nc(N)c(C(=O)c4ccc(N5CCCC(CO)C5)c([N+](=O)[O-])c4)s3)cc2)CC1` (racemic) [Example 61, [4-Amino-2-[[4-(4-methyl-1-piperazinyl)phenyl]amino]-5-thiazolyl][3-nitro-4-[3-(hydroxymethyl)-1-piperidinyl]phenyl]methanone]: the half-maximal inhibitory concentration (IC50) turned out to be 3.5 µM in experiment [1], 0.012 µM in experiment [2], 3.9 µM in experiment [3] and 2.3 µM in experiment [4].
For the compound `CC1CCCN1c1ccc(C(=O)c2sc(Nc3ccc(N4CCN(C)CC4)cc3)nc2N)cc1[N+](=O)[O-]` (racemic) [Example 62, [4-Amino-2-[[4-(4-methyl-1-piperazinyl)phenyl]amino]-5-thiazolyl][3-nitro-4-(2-methyl-1-pyrrolidinyl)phenyl]methanone], the IC50 in experiment [1] was determined as 10 µM; in experiment [2], 0.044 µM; in experiment [3], 4.4 µM; in experiment [4] it was 5.9 µM.
On the same counts, the results for `CN1CCN(c2ccc(Nc3nc(N)c(C(=O)c4ccc5c(c4)OCCO5)s3)cc2)CC1` [Example 24, [4-Amino-2-[[4-(4-methyl-1-piperazinyl)phenyl]amino]-5-thiazolyl](2,3-dihydro-1,4-benzodioxin-6-yl)methanone] are 2.5 µM, 0.02 µM, 3.9 µM and 4.3 µM.
The corresponding values for `CN1CCN(c2ccc(Nc3nc(N)c(C(=O)c4ccc5c(c4)OCO5)s3)cc2)CC1` [Example 25, [4-Amino-2-[[4-(4-methyl-1-piperazinyl)phenyl]amino]-5-thiazolyl](1,3-benzodioxol-5-yl)methanone] are 0.5 µM, 0.018 µM, 3.5 µM and 3.5 µM.
Turning to `CN1CCN(c2ccc(Nc3nc(N)c(C(=O)c4ccc(N5CCCC5)cc4)s3)cc2)CC1` [Example 26, [4-Amino-2-[[4-(4-methyl-1-piperazinyl)phenyl]amino]-5-thiazolyl][4-(1-pyrrolidinyl)phenyl]methanone], the concentration for half-maximal inhibition (IC50) is 9 µM in experiment [1], 0.059 µM in experiment [2], 5.6 µM in experiment [3] and 6.2 µM in experiment [4].
In the case of `CN1CCN(c2ccc(Nc3nc(N)c(C(=O)c4ccc(N5CCCCC5)cc4)s3)cc2)CC1` [Example 27, [4-Amino-2-[[4-(4-methyl-1-piperazinyl)phenyl]amino]-5-thiazolyl][4-(1-piperidinyl)phenyl]methanone], the IC50 in experiment [1] amounted to 20.1 µM; in experiment [2], 0.004 µM; in experiment [3], 9.1 µM; in experiment [4] it was 9.4 µM.
With `CN1CCN(c2ccc(Nc3nc(N)c(C(=O)c4ccc(N5CCOCC5)cc4)s3)cc2)CC1` [Example 28, [4-Amino-2-[[4-(4-methyl-1-piperazinyl)phenyl]amino]-5-thiazolyl][4-(4-morpholinyl)phenyl]methanone], the concentration for half-maximal inhibition (IC50) turned out to be 9.2 µM in experiment [1], 0.017 µM in experiment [2], 9.5 µM in experiment [3] and 22.2 µM in experiment [4].
As for `CN1CCN(c2ccc(Nc3nc(N)c(C(=O)c4ccc5c(c4)OCCCO5)s3)cc2)CC1` [Example 29, [4-Amino-2-[[4-(4-methyl-1-piperazinyl)phenyl]amino]-5-thiazolyl](3,4-dihydro-2H-1,5-benzodioxepin-7-yl)methanone], the IC50 is 15.9 µM in experiment [1], 0.103 µM in experiment [2], 9.5 µM in experiment [3] and 9.6 µM in experiment [4].
Consider `CN1CCN(c2ccc(Nc3nc(N)c(C(=O)c4ccc(O)cc4)s3)cc2)CC1` [Example 30, [4-Amino-2-[[4-(4-methyl-1-piperazinyl)phenyl]amino]-5-thiazolyl]-(4-hydroxyphenyl)methanone], for which the IC50 in experiment [1] was 2.4 µM; in experiment [2] it was 0.053 µM; in experiment [3], 3.6 µM; in experiment [4], 2.3 µM.
As for `CN1CCN(c2ccc(Nc3nc(N)c(C(=O)c4cccc([N+](=O)[O-])c4)s3)cc2)CC1` [Example 31, [4-Amino-2-[[4-(4-methyl-1-piperazinyl)phenyl]amino]-5-thiazolyl](3-nitrophenyl)methanone], the IC50 in experiment [1] turned out to be 0.5 µM; in experiment [2], 0.026 µM; in experiment [3], 4.1 µM; in experiment [4], 2.3 µM.
`COc1ccc(C(=O)c2sc(Nc3ccc(N4CCN(C)CC4)cc3)nc2N)cc1` [Example 32, [4-Amino-2-[[4-(4-methyl-1-piperazinyl)phenyl]amino]-5-thiazolyl](4-methoxyphenyl)methanone]: the half-maximal inhibitory concentration (IC50) is 3.9 µM in experiment [1], 0.08 µM in experiment [2], 5.6 µM in experiment [3] and 9.6 µM in experiment [4].
For `CCN(CC)c1ccc(C(=O)c2sc(Nc3ccc(N4CCN(C)CC4)cc3)nc2N)cc1` [Example 33, [4-Amino-2-[[4-(4-methyl-1-piperazinyl)phenyl]amino]-5-thiazolyl][4-(diethylamino)phenyl]methanone], the half-inhibitory concentration (IC50) in experiment [1] stood at 6.1 µM; in experiment [2] it was 0.008 µM; in experiment [3], 9.2 µM; in experiment [4] it was 6.5 µM.
On the same counts, the results for `CN1CCN(c2ccc(Nc3nc(N)c(C(=O)c4ccc5oc6ccccc6c5c4)s3)cc2)CC1` [Example 34, [4-Amino-2-[[4-(4-methyl-1-piperazinyl)phenyl]amino]-5-thiazolyl](2-dibenzofuranyl)methanone] are 11.7 µM, 0.049 µM, 3.8 µM and 6.1 µM.
For `COc1ccc(C(=O)c2sc(Nc3ccc(N4CCN(C)CC4)cc3)nc2N)cc1F` [Example 35, [4-Amino-2-[[4-(4-methyl-1-piperazinyl)phenyl]amino]-5-thiazolyl](3-fluoro-4-methoxyphenyl)methanone], the IC50 in experiment [1] came to 1.1 µM; in experiment [2] it was 0.008 µM; in experiment [3], 1.8 µM; in experiment [4], 1.8 µM.
On to `COc1cccc(C(=O)c2sc(Nc3ccc(N4CCN(C)CC4)cc3)nc2N)c1` [Example 36, [4-Amino-2-[[4-(4-methyl-1-piperazinyl)phenyl]amino]-5-thiazolyl](3-methoxyphenyl)methanone], for which the IC50 amounted to 2.1 µM in experiment [1], 0.025 µM in experiment [2], 2.8 µM in experiment [3] and 5.4 µM in experiment [4].
On the same counts, the results for `CN1CCN(c2ccc(Nc3nc(N)c(C(=O)c4ccc(Cl)c(Cl)c4)s3)cc2)CC1` [Example 37, [4-Amino-2-[[4-(4-methyl-1-piperazinyl)phenyl]amino]-5-thiazolyl](3,4-dichlorophenyl)methanone] are 10 µM, 0.073 µM, 6.6 µM and 6.3 µM.
The corresponding values for `CN1CCN(c2ccc(Nc3nc(N)c(C(=O)c4ccc5c(c4)OCO5)s3)cc2F)CC1` [Example 38, [4-Amino-2-[[3-fluoro-4-(4-methyl-1-piperazinyl)phenyl]amino]-5-thiazolyl](1,3-benzodioxol-5-yl)methanone] are 2 µM, 0.006 µM, 1.9 µM and 2.6 µM.

In general, IC50 refers to the concentration that gives 50% inhibition. A higher IC50 goes with lower potency.
